# How the values were obtained:
# Alpha glucosidase [1] = target: T1, Alpha glucosidase (Homo sapiens, UniProt O43451+P10253+P14410+Q2M2H8); test: Inhibition of alpha-glucosidase (unknown origin) using p-nitrophenyl-alpha-d-glucopyranoside as substrate preincubated for 15 mins followed by substrate addition measured after 30 mins by spectrophotometric analysis; assay type: protein assay
# Alpha glucosidase [2] = target: T1, Alpha glucosidase; test: Inhibition of alpha-glucosidase (unknown origin) using pNPG as substrate preincubated for 10 mins followed by substrate addition measured after 30 mins; assay type: protein assay
# [3] = Inhibition of yeast alpha-glucosidase; design: species or system Saccharomyces cerevisiae
# Alpha glucosidase [4] = target: T1, Alpha glucosidase; test: Inhibition of alpha-glucosidase (unknown origin) using p-nitro phenyl glucopyranoside as substrate preincubated for 5 mins followed by substrate addition measured after 30 mins; assay type: protein assay
# Alpha glucosidase [5] = target: T1, Alpha glucosidase; test: Inhibition of alpha-glucosidase (unknown origin) using p-nitrophenyl-alpha-d-glucopyranoside as substrate preincubated for 5 mins followed by substrate addition measured after 5 mins; assay type: protein assay
compound,measurement,setting,value
CC(C)(C)c1ccc(Cn2cc(CSc3nc4cc(Cl)ccc4s3)nn2)cc1,IC50,Alpha glucosidase [1],20 µM
Cc1ccc(-c2cc(-c3cccc(Br)c3)nc(SCc3cccc(F)c3)n2)cc1,IC50,Alpha glucosidase [1],19 to 38 µM
Fc1ccc2[nH]c(-c3ccccc3)c(-c3nc(-c4ccccc4)c(-c4ccccc4)n3-c3ccccc3)c2c1,IC50,Alpha glucosidase [2],8.3 to 98 µM
Clc1ccc(Cn2cc(CSc3nc4cc(Cl)ccc4s3)nn2)cc1,IC50,Alpha glucosidase [1],20 to 61 µM
O=C(N/N=C/c1cc(O)ccc1O)c1cc2ccccc2[nH]1,IC50,Alpha glucosidase [2],2.3 to 226 µM
O=c1cc(-c2cccc(OCc3cccc(F)c3F)c2)oc2ccccc12,IC50,[3],3.4 µM
Brc1ccc(Cn2cc(CSc3nc4ccccc4s3)nn2)cc1,IC50,Alpha glucosidase [1],20 to 61 µM
O=c1cc(-c2nn(C(Nc3ccc(-c4ccc(NC(c5cccc(Cl)c5)n5nc(-c6cc7ccccc7oc6=O)oc5=S)cc4)cc3)c3cccc(Cl)c3)c(=S)o2)c2ccccc2o1 (configuration not stated),IC50,Alpha glucosidase [4],0.07 to 0.76 µM
Fc1cccc(CSc2nc(-c3ccc(Br)cc3)cc(-c3ccc(Br)cc3)n2)c1,IC50,Alpha glucosidase [1],19 to 38 µM
Cc1ccc(-c2cc(-c3ccc(Br)cc3)nc(SCc3ccccc3Br)n2)cc1,IC50,Alpha glucosidase [1],19 to 38 µM
N#Cc1ccc(COc2cccc(-c3cc(=O)c4ccccc4o3)c2)cc1,IC50,[3],1.2 to 88 µM
O=c1cc(-c2cccc(OCc3ccc([N+](=O)[O-])cc3)c2)oc2ccccc12,IC50,[3],1.2 to 88 µM
O=c1cc(-c2nn(C(Nc3ccc(NC(c4ccc(Cl)cc4)n4nc(-c5cc6ccccc6oc5=O)oc4=S)cc3)c3ccc(Cl)cc3)c(=S)o2)c2ccccc2o1 (configuration not stated),IC50,Alpha glucosidase [4],0.07 to 0.76 µM
Cc1cc2c(c(=O)[nH]1)C(=O)O/C2=C\c1ccc(O)c(O)c1,IC50,[3],1 to 53 µM
Fc1ccccc1Cn1cc(CSc2nc3cc(Cl)ccc3s2)nn1,IC50,Alpha glucosidase [1],20 to 61 µM
Clc1ccccc1CSc1nc(-c2ccc(Br)cc2)cc(-c2cccc(Br)c2)n1,IC50,Alpha glucosidase [1],19 to 38 µM
Cc1cccc(COc2cccc(-c3cc(=O)c4ccccc4o3)c2)c1,IC50,[3],1.2 to 88 µM
Fc1ccc(Cn2cc(CSc3nc4cc(Cl)ccc4s3)nn2)cc1,IC50,Alpha glucosidase [1],20 to 61 µM
O=c1cc(-c2nn(C(Nc3ccc(-c4ccc(NC(c5ccc([N+](=O)[O-])cc5)n5nc(-c6cc7ccccc7oc6=O)oc5=S)cc4)cc3)c3ccc([N+](=O)[O-])cc3)c(=S)o2)c2ccccc2o1 (configuration not stated),IC50,Alpha glucosidase [4],0.07 to 0.76 µM
CN(C)c1ccc(C(Nc2ccc(Oc3ccc(NC(c4ccc(N(C)C)cc4)n4nc(-c5cc6ccccc6oc5=O)oc4=S)cc3)cc2)n2nc(-c3cc4ccccc4oc3=O)oc2=S)cc1 (configuration not stated),IC50,Alpha glucosidase [4],0.07 to 0.76 µM
CC(C)(C)c1ccc(COc2cccc(-c3cc(=O)c4ccccc4o3)c2)cc1,IC50,[3],1.2 to 88 µM
Cc1cc2c(c(=O)[nH]1)C(=O)O/C2=C\c1cc(Br)cs1,IC50,[3],0.24 µM
CC(C)(C)c1ccc(Cn2cc(CSc3nc4ccccc4s3)nn2)cc1,IC50,Alpha glucosidase [1],20 to 61 µM
Cc1cc2c(c(=O)[nH]1)C(=O)O/C2=C\c1ccccc1,IC50,[3],1 to 53 µM
Clc1ccc2sc(SCc3cn(Cc4ccccc4)nn3)nc2c1,IC50,Alpha glucosidase [1],20 to 61 µM
Cc1ccc(C(Nc2ccc(-c3ccc(NC(c4ccc(C)cc4)n4nc(-c5cc(=O)oc6ccccc56)oc4=S)cc3)cc2)n2nc(-c3cc4ccccc4oc3=O)oc2=S)cc1 (configuration not stated),IC50,Alpha glucosidase [4],0.07 to 0.76 µM
Brc1ccccc1Cn1cc(CSc2nc3ccccc3s2)nn1,IC50,Alpha glucosidase [1],20 to 61 µM
Cc1ccc(-c2cc(-c3ccc(Br)cc3)nc(SCc3ccc(Cl)cc3)n2)cc1,IC50,Alpha glucosidase [1],19 to 38 µM
Cc1cc2c(c(=O)[nH]1)C(=O)O/C2=C\c1cccc(Br)c1,IC50,[3],1 to 53 µM
COc1cccc(C(Nc2ccc(NC(c3cccc(OC)c3)n3nc(-c4cc(=O)oc5ccccc45)oc3=S)cc2)n2nc(-c3cc4ccccc4oc3=O)oc2=S)c1 (configuration not stated),IC50,Alpha glucosidase [4],0.07 to 0.76 µM
Fc1cccc(Cn2cc(CSc3nc4ccccc4s3)nn2)c1,IC50,Alpha glucosidase [1],20 to 61 µM
Fc1cccc(CSc2nc(-c3ccc(Br)cc3)cc(-c3cccc(Br)c3)n2)c1,IC50,Alpha glucosidase [1],19 to 38 µM
CN(C)c1ccc(C(Nc2ccc(NC(c3ccc(N(C)C)cc3)n3nc(-c4cc(=O)oc5ccccc45)oc3=S)cc2)n2nc(-c3cc4ccccc4oc3=O)oc2=S)cc1 (configuration not stated),IC50,Alpha glucosidase [4],0.07 to 0.76 µM
Clc1ccc(CSc2nc(-c3ccc(Br)cc3)cc(-c3ccc(Br)cc3)n2)cc1,IC50,Alpha glucosidase [1],19 to 38 µM
Clc1cc(Cl)cc(Cn2cc(CSc3nc4cc(Cl)ccc4s3)nn2)c1,IC50,Alpha glucosidase [1],20 to 61 µM
Cc1cc2c(c(=O)[nH]1)C(=O)O/C2=C\c1ccc(F)c(F)c1,IC50,[3],1 µM
Cc1ccc(C(Nc2ccc(Oc3ccc(NC(c4ccc(C)cc4)n4nc(-c5cc6ccccc6oc5=O)oc4=S)cc3)cc2)n2nc(-c3cc4ccccc4oc3=O)oc2=S)cc1 (configuration not stated),IC50,Alpha glucosidase [4],0.07 to 0.76 µM
Clc1ccc2sc(SCc3cn(Cc4ccccc4Br)nn3)nc2c1,IC50,Alpha glucosidase [1],20 to 61 µM
Cc1cc2c(c(=O)[nH]1)C(=O)O/C2=C\c1cc(-c2ccccc2)cs1,IC50,[3],8.3 µM
Cc1cc2c(c(=O)[nH]1)C(=O)O/C2=C\c1cccs1,IC50,[3],0.24 to 10 µM
O=C(COc1ccc2ccc(=O)oc2c1)N/N=C1\C(=O)N(Cc2ccccc2F)c2ccc(Cl)cc21,IC50,Alpha glucosidase [1],2.5 µM
O=c1cc(-c2nn(C(Nc3ccc(NC(c4ccc(F)cc4)n4nc(-c5cc6ccccc6oc5=O)oc4=S)cc3)c3ccc(F)cc3)c(=S)o2)c2ccccc2o1 (configuration not stated),IC50,Alpha glucosidase [4],0.07 to 0.76 µM
O=c1oc2ccccc2cc1-c1nn(C(Nc2ccc(Oc3ccc(NC(c4ccc([N+](=O)[O-])cc4)n4nc(-c5cc6ccccc6oc5=O)oc4=S)cc3)cc2)c2ccc([N+](=O)[O-])cc2)c(=S)o1 (configuration not stated),IC50,Alpha glucosidase [4],0.07 to 0.76 µM
Fc1cccc(Cn2cc(CSc3nc4cc(Cl)ccc4s3)nn2)c1,IC50,Alpha glucosidase [1],20 to 61 µM
Fc1ccccc1CSc1nc(-c2ccc(Br)cc2)cc(-c2ccc(Br)cc2)n1,IC50,Alpha glucosidase [1],19 to 38 µM
Cc1ccc(-c2cc(-c3cccc(Br)c3)nc(SCc3ccc(F)cc3)n2)cc1,IC50,Alpha glucosidase [1],19 to 38 µM
O=c1cc(-c2nn(C(Nc3ccc(NC(c4ccc([N+](=O)[O-])cc4)n4nc(-c5cc6ccccc6oc5=O)oc4=S)cc3)c3ccc([N+](=O)[O-])cc3)c(=S)o2)c2ccccc2o1 (configuration not stated),IC50,Alpha glucosidase [4],0.07 to 0.76 µM
O=c1oc2ccccc2cc1-c1nn(C(Nc2ccc(Oc3ccc(NC(c4ccc(Cl)cc4Cl)n4nc(-c5cc6ccccc6oc5=O)oc4=S)cc3)cc2)c2ccc(Cl)cc2Cl)c(=S)o1 (configuration not stated),IC50,Alpha glucosidase [4],0.07 to 0.76 µM
O=c1cc(-c2nn(C(Nc3ccc(NC(c4cccc(Cl)c4)n4nc(-c5cc6ccccc6oc5=O)oc4=S)cc3)c3cccc(Cl)c3)c(=S)o2)c2ccccc2o1 (configuration not stated),IC50,Alpha glucosidase [4],0.07 to 0.76 µM
N#Cc1cccc(COc2cccc(-c3cc(=O)c4ccccc4o3)c2)c1,IC50,[3],1.2 to 88 µM
Cc1ccc(C(Nc2ccc(NC(c3ccc(C)cc3)n3nc(-c4cc(=O)oc5ccccc45)oc3=S)cc2)n2nc(-c3cc4ccccc4oc3=O)oc2=S)cc1 (configuration not stated),IC50,Alpha glucosidase [4],0.07 to 0.76 µM
O=c1cc(-c2cccc(OCc3cc(C(F)(F)F)ccc3C(F)(F)F)c2)oc2ccccc12,IC50,[3],1.2 µM
O=c1cc(-c2nn(C(Nc3ccc(-c4ccc(NC(c5ccc(Cl)cc5Cl)n5nc(-c6cc7ccccc7oc6=O)oc5=S)cc4)cc3)c3ccc(Cl)cc3Cl)c(=S)o2)c2ccccc2o1 (configuration not stated),IC50,Alpha glucosidase [4],0.07 to 0.76 µM
Clc1ccccc1CSc1nc(-c2ccc(Br)cc2)cc(-c2ccc(Br)cc2)n1,IC50,Alpha glucosidase [1],19 to 38 µM
CN(C)c1ccc(C(Nc2ccc(-c3ccc(NC(c4ccc(N(C)C)cc4)n4nc(-c5cc(=O)oc6ccccc56)oc4=S)cc3)cc2)n2nc(-c3cc4ccccc4oc3=O)oc2=S)cc1 (configuration not stated),IC50,Alpha glucosidase [4],0.07 to 0.76 µM
Clc1cc(Cl)cc(Cn2cc(CSc3nc4ccccc4s3)nn2)c1,IC50,Alpha glucosidase [1],20 to 61 µM
COc1ccc(-c2csc(/C=C3\OC(=O)c4c3cc(C)[nH]c4=O)c2)cn1,IC50,[3],8.3 to 86 µM
O=c1oc2ccccc2cc1-c1nn(C(Nc2ccc(Oc3ccc(NC(c4ccc(Cl)cc4)n4nc(-c5cc6ccccc6oc5=O)oc4=S)cc3)cc2)c2ccc(Cl)cc2)c(=S)o1 (configuration not stated),IC50,Alpha glucosidase [4],0.07 to 0.76 µM
COc1ccc(COc2cccc(-c3cc(=O)c4ccccc4o3)c2)cc1,IC50,[3],1.2 to 88 µM
Fc1ccc(CSc2nc(-c3ccc(Br)cc3)cc(-c3ccc(Br)cc3)n2)cc1,IC50,Alpha glucosidase [1],19 to 38 µM
Cc1cc2c(c(=O)[nH]1)C(=O)O/C2=C\c1ccc(Br)cc1,IC50,[3],1 to 53 µM
Cc1cc2c(c(=O)[nH]1)C(=O)O/C2=C\c1ccccc1C(F)(F)F,IC50,[3],1 to 53 µM
O=c1cc(-c2nn(C(Nc3ccc(NC(c4cccc(Br)c4)n4nc(-c5cc6ccccc6oc5=O)oc4=S)cc3)c3cccc(Br)c3)c(=S)o2)c2ccccc2o1 (configuration not stated),IC50,Alpha glucosidase [4],0.07 to 0.76 µM
O=c1cc(-c2nn(C(Nc3ccc(-c4ccc(NC(c5ccc(Br)cc5)n5nc(-c6cc7ccccc7oc6=O)oc5=S)cc4)cc3)c3ccc(Br)cc3)c(=S)o2)c2ccccc2o1 (configuration not stated),IC50,Alpha glucosidase [4],0.07 to 0.76 µM
O=c1cc(-c2nn(C(Nc3ccc(-c4ccc(NC(c5ccc(Cl)cc5)n5nc(-c6cc7ccccc7oc6=O)oc5=S)cc4)cc3)c3ccc(Cl)cc3)c(=S)o2)c2ccccc2o1 (configuration not stated),IC50,Alpha glucosidase [4],0.07 to 0.76 µM
Cc1ccc(-c2cc(-c3cccc(Br)c3)nc(SCc3ccccc3Cl)n2)cc1,IC50,Alpha glucosidase [1],19 to 38 µM
Nc1nnc(-c2c3ccccc3cc3ccccc23)s1,IC50,Alpha glucosidase [5],2.3 to 38 µM
O=c1cc(-c2nn(C(Nc3ccc(-c4ccc(NC(c5cccc(Br)c5)n5nc(-c6cc7ccccc7oc6=O)oc5=S)cc4)cc3)c3cccc(Br)c3)c(=S)o2)c2ccccc2o1 (configuration not stated),IC50,Alpha glucosidase [4],0.07 to 0.76 µM
Clc1ccc(Cn2cc(CSc3nc4ccccc4s3)nn2)cc1,IC50,Alpha glucosidase [1],20 to 61 µM
Clc1ccc2sc(SCc3cn(Cc4ccccc4Cl)nn3)nc2c1,IC50,Alpha glucosidase [1],20 to 61 µM
O=c1cc(-c2cccc(OCc3cccc(SC(F)(F)F)c3)c2)oc2ccccc12,IC50,[3],1.2 to 88 µM
COc1cccc(C(Nc2ccc(-c3ccc(NC(c4cccc(OC)c4)n4nc(-c5cc(=O)oc6ccccc56)oc4=S)cc3)cc2)n2nc(-c3cc4ccccc4oc3=O)oc2=S)c1 (configuration not stated),IC50,Alpha glucosidase [4],0.07 to 0.76 µM
O=c1cc(-c2cccc(OCc3ccccc3)c2)oc2ccccc12,IC50,[3],1.2 to 88 µM
Cc1cc2c(c(=O)[nH]1)C(=O)O/C2=C\c1cc(-c2ccnc(N3CCN(C(=O)OC(C)(C)C)CC3)c2)cs1,IC50,[3],8.3 to 86 µM
O=C(N/N=C/c1cccc(O)c1O)c1cc2ccccc2oc1=O,IC50,Alpha glucosidase [5],1.1 µM
Nc1nnc(-c2cc3ccccc3cc2O)s1,IC50,Alpha glucosidase [5],2.3 to 38 µM
O=c1oc2ccccc2cc1-c1nn(C(Nc2ccc(Oc3ccc(NC(c4ccc(Br)cc4)n4nc(-c5cc6ccccc6oc5=O)oc4=S)cc3)cc2)c2ccc(Br)cc2)c(=S)o1 (configuration not stated),IC50,Alpha glucosidase [4],0.07 to 0.76 µM
O=C(N/N=C/c1ccccc1O)c1cc2ccccc2oc1=O,IC50,Alpha glucosidase [5],1.1 to 36 µM
Nc1nnc(-c2ccc(OCc3ccccc3)cc2)s1,IC50,Alpha glucosidase [5],2.3 to 38 µM
Cc1cc2c(c(=O)[nH]1)C(=O)O/C2=C\c1nccn1C,IC50,[3],0.9 µM
Clc1ccc2sc(SCc3cn(Cc4ccc(Br)cc4)nn3)nc2c1,IC50,Alpha glucosidase [1],20 to 61 µM
O=c1cc(-c2nn(C(Nc3ccc(NC(c4ccc(Cl)cc4Cl)n4nc(-c5cc6ccccc6oc5=O)oc4=S)cc3)c3ccc(Cl)cc3Cl)c(=S)o2)c2ccccc2o1 (configuration not stated),IC50,Alpha glucosidase [4],0.07 to 0.76 µM
